The values below come from US9056835B2, “LPA2 receptor-specific benzoic acid derivatives” (University of Tennessee Research Foundation, priority 2012, dated 2015).

The test system of assay [1] is LPA2 DKO MEF cells. Briefly: Adriamycin-induced caspase 3/7 activation in LPA2 DKO MEF and EV DKO MEF cells. The format is cell-based, mouse. Conditions: 1-3 μM, 1 h before Adriamycin. As to the method: (§1) Mouse embryonic fibroblast (MEF) cells used in this study isolated from LPA1/2 double knock out (LPA2-DKO) mice {Lin, 2007 #132}. These MEF express LPA4/5/6 receptors endogenously at lower levels but completely lack LPA1/2/3 receptor subtypes. The human LPA2 receptor was reintroduced into these MEF cells by lentiviral transduction, which are designated LPA2 DKO MEF {Lin, 2007 #132}. Empty vector-transduced MEF cells, designates as EV DKO MEF, were used as a control. Cells were cultured in a DMEM supplemented with 10% v/v fetal bovine serum (FBS), 2 mM L-glutamine, 100 U/ml penicillin, and 100 μg/mL streptomycin. During serum starvation, the growth medium was replaced with DMEM containing 0.1% (w/v) BSA.
(§2) The cells were plated in 48 well plates (2×10^4 cells/well) and cultured overnight in full growth medium. Next morning the growth medium was replaced by serum-free starvation medium and cells were pretreated for 1 hour with LPA (1 or 3 μM), compound 5b or 7b (1, 3 or 10 μM). Apoptosis was elicited by 1.7 μM Adriamycin in vector and LPA2 transduced MEF cells. Caspase 3, 7, 8, 9 activity and DNA fragmentation were measured to assess apoptosis 5 h after Adriamycin exposure.
To measure caspase activation the cells were lysed in 50 μl Caspase-Glow® reagent (Caspase 3/7, 8, 9 Promega, Madison, Wis.). The cells were shaken with the caspase reagent for 30 min at room temperature (RT). After 30 min, the luminescence was measured using a BioTek (Winooski, Vt.) plate reader. The mean caspase activity in triplicates/experimental group±SD was calculated. LPA was used as a positive control in all experiments.

For assay [2], the target named is T1, LPA2 (Homo sapiens, UniProt Q9HBW0). In words: LPA receptor-mediated Ca2+ mobilization assay, LPA2 (RH7777 cells stably expressing LPA2). The format is cell-based. As to conditions: Ca2+ transients, RH7777 cells stably expressing LPA2; for EC50: read-out: EC50 (μM) (RH7777). On the set-up: expressed in transfected cells. As to the method: Similarity searches were performed separately using each fingerprint to quantitate similarity. Hits meeting the 80% similarity threshold from each search were ranked based on the Tanimoto coefficient measure of similarity to a target molecule NSC12404, and the top 75 unique hits from each fingerprint search were selected for further analysis. […] This selected a diverse subset of 27 compounds for biological evaluation by choosing the middle compounds in each cluster. These 27 compounds were tested in Ca^2+ mobilization assays at a concentration of 10 μM using stable cell lines individually expressing LPA2 and also in vector-transfected control cells. Hits activating LPA2 were further tested using cells expressing the other established and putative LPA GPCRs. […] They arbitrarily selected GRI977143 for further characterization in cell-based assays.
T1 sequence (Q9HBW0 whole entry): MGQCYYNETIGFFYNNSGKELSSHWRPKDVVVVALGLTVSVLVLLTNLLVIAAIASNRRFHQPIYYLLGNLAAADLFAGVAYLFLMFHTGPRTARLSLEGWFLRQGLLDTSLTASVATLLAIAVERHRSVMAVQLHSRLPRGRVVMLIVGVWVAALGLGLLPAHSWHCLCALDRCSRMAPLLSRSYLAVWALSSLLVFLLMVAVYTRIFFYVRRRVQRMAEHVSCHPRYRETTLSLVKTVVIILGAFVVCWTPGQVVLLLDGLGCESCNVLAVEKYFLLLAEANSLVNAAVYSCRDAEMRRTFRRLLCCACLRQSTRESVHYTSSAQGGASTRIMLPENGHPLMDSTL
The newly-synthesized compounds were tested for their ability to induce Ca^2+ transients in RH7777 cells stably expressing the LPA2 receptor.
The cells were loaded with Fura-2-acetoxymethyl esther (Fura-2/AM) in Krebs buffer containing 0.01% pluronic acid for 30 min and rinsed with Krebs buffer before measuring Ca^2+ mobilization. The ratio of peak emissions at 510 nm after 2 min of ligand addition was determined for excitation wavelengths of 340 nm/380 nm. All samples were run in quadruplicate. […] The half maximally effective concentration (EC50), and inhibitory constant (Ki) values were calculated by fitting a sigmoid function to dose-response data points using KaleidaGraph software (version 4.1, Synergy Software; […]).
Mouse embryonic fibroblast (MEF) cells were isolated from E13.5 LPA1&2 double knockout (DKO) embryos. MEFs were transduced with empty vector or LPA2-containing lentiviruses and selected with 1.5 μg/ml puromycin. Cells were maintained in Dulbecco's modified Eagle medium (DMEM) supplemented with 10% (V/V) fetal bovine serum (FBS), 2 mM L-glutamine, 100 U/mL penicillin, and 100 μg/mL streptomycin. Serum-free medium contained 0.1% (W/V) BSA in DMEM. The rat intestinal epithelial cell line 6 (IEC-6) was obtained from the American Type Culture Collection (Rockville, Md.) at passage 13; passages 16-21 were used in all experiments. IEC-6 cells were maintained in a humidified 37° C. incubator in an atmosphere of 90% air and 10% CO2. Growth medium consisted of DMEM supplemented with 5% heat inactivated FBS, 10 μg/mL insulin, and 50 μg/mL gentamycin. The composition of the serum-starvation medium was the same as that of the full growth medium except that it contained no FBS. The McArdle rat hepatoma cell line (RH7777) stably expressing LPA2 receptors was a gift from Dr. Fumikazu Okajima (Gunma University, Maebashi, Japan). RH7777 cells stably expressing LPA1 or LPA3 receptors were generated in-house and had been characterized earlier. Wild type and LPA receptor (LPAR) stably transfected RH7777 cells were grown in DMEM supplemented with 10% FBS and 2 mM L-glutamine in the presence of 250 μg/ml G418. Chinese hamster ovary (CHO) cells stably expressing either vector or LPA4 receptor were a kind gift from Dr. Takao Shimizu (Tokyo University; Tokyo, Japan). Cells were cultured in Ham's F12 medium containing 10% FBS, 2 mM L-glutamine, and 350 μg/ml G418. Rat neuroblastoma cells (B103) were transduced with the lentivirus harboring wild type of FLAG-LPA5 and selected with puromycin to establish the stable cell lines. The stable cells were maintained in DMEM supplemented with 10% FBS and 0.4 μg/ml puromycin. GPR87- and P2Y10-expressing CHO cells and vector-transfected control cells were a gift from Dr. Norihisha Fujita (Ritsumeikan University; Shiga, Japan). The highly invasive MM1 rat hepatoma cells (gift from Dr. Michiko Mukai, Osaka University, Japan) were grown in suspension in DMEM supplemented with 10% (V/V) FBS, 2 mM L-glutamine, 100 U/mL penicillin, and 100 μg/mL streptomycin.
Background: A change in cytosolic calcium serves as a functional read-out for many receptors and channels.

Assay [3] relates to C57BL/6 mice. Briefly: Radiation-induced mortality, 15.68 Gy PBI-BM5. The format is in vivo, mouse. As to conditions: 15.68 Gy PBI-BM5, single 1 mg/kg s.c. 24 h after irradiation. As to the method: 10-week old female C57BL/6 mice were exposed to a 15.68 Gy (˜LD60/8-10) dose of γ-irradiation from a ^137Cs Source. Twenty four hours after irradiation mice were treated with a single 200 μL subcutaneous injection of 1 mg/kg of the test compounds 5b, 7a, and 7b dissolved in 0.8% DMSO, 1% ethanol, 2% propanediol in PBS buffer. The animals were observed daily and provided with food and water ad libitum. Form day four onward the mice also were provided with a gel food diet. The study endpoint was mortality by day 20.

For assay [4], the system named is LPA2 DKO MEF cells. In words: Adriamycin-induced DNA fragmentation in LPA2 DKO MEF and EV DKO MEF cells. It is filed as cell-based, mouse. How it is done:
as §1, §2
DNA fragmentation was quantified by using the Cell Death Detection ELISA assay kit (Roche Diagnostics, Penzberg, Germany). 20 μl cell lysate was incubated with the anti-histone-biotin anti-DNA-peroxidase-conjugated antibody in a 96-well streptavidin-coated plate with shaking at RT for 2 h. After washing the wells three-times with the incubation buffer, 100 μl/well 2,2′-azino-di(3-ethylbenzthiazolin-sulfonate) substrate was added and the absorbance was measured at 405 nm. Protein concentration was measured using BCA Protein Assay Kit (Thermo Fisher Scientific Inc., Rockford, Ill.). DNA fragmentation was expressed as absorbance units/mg protein. LPA was used as a positive control in all experiments.

For assay [5], the target named is T1, LPA2. In words: Fura-2AM Ca2+ mobilization in LPA2 DKO MEF cells. It is filed as cell-based. As to conditions: for EC50: DKO MEF; for Emax: MEF. Details: expressed in transfected cells; host or cells: mouse embryonic fibroblasts from LPA1/2 double-knockout mice, lentiviral transduction. How it is done:
(§3) Fluorescence was read every 3.42 seconds for a total of 70 seconds at Ex/Emλ of 340/510 nm and 380/510 nm. Data (relative fluorescence) was then recorded as a mean fluorescence ratio value of the triplicates for each concentration. Graph Pad Prism version 5.0a was then used to fit a non-linear regression curve in a variable slope model (A) to determine the EC50, Emax, and curve fit (R^2)(B).
as §1, §3

Molecules are shown by their SMILES.

For orientation: EC50 means the concentration that produces a half-maximal response. As a reminder, the Emax is the greatest response seen or fitted, relative to the assay's reference.

As to `O=C(O)c1ccccc1S(=O)(=O)NCCCN1C(=O)c2cccc3cccc(c23)C1=O` [Compound 5a, 2-[3-(1,3-Dioxo-1H,3H-benzo[de]isoquinolin-2-yl)propylsulfamoyl]benzoic acid], the figures for the “caspase-3/7 activation (apoptosis)” value in assay [1] (EV DKO MEF) and in assay [1] (LPA2 DKO MEF) were “not in EV DKO MEF cells” and “significantly reduced apoptosis”, respectively. Further, in assay [2], the EC50 turned out to be 2.2 µM. Besides, the “mortality by day 20” value in assay [3] is recorded as “significantly reduced mortality”. The “protection from DNA fragmentation” value in assay [4] (EV DKO MEF cells) is “no protection”. In addition, in assay [4] (LPA2 DKO MEF, 10 μM, 60 min pretreatment, Adriamycin), the “reduction of DNA fragmentation” value was ~50%. Besides, in assay [4] (LPA2 transduced cells, 3 μM), the “protection from Adriamycin induced DNA fragmentation” value was “selectively protected”.

Consider `O=C(O)c1ccccc1S(=O)(=O)NCCCCN1C(=O)c2cccc3cccc(c23)C1=O` [Compound 5b, 2-[4-(1,3-Dioxo-1H,3H-benzo[de]isoquinolin-2-yl)butylsulfamoyl]benzoic acid], for which, in assay [5], the concentration for a half-maximal effect (EC50) stood at 0.5 µM and the maximal response (Emax) is 100%. In assay [2], the maximum response (Emax) stood at 100% and the EC50 was found to be 0.5 µM.

Regarding `O=C(O)c1ccccc1S(=O)(=O)NCCCCCN1C(=O)c2cccc3cccc(c23)C1=O` [Compound 5c], in assay [2], the Emax amounted to 100% and the half-maximal effective concentration (EC50) stood at 1.2 µM.

For the molecule `O=C(O)c1ccc([N+](=O)[O-])cc1S(=O)(=O)NCCCCN1C(=O)c2cccc3cccc(c23)C1=O` [Compound 7a, 2-(N-(4-(1,3-dioxo-1H-benzo[de]isoquinolin-2(3H)-yl)butyl)sulfamoyl)-4-nitrobenzoic acid], the EC50 in assay [5] and in assay [2] was > 10 µM throughout. For the same molecule, the “mortality by day 20” value in assay [3] is reported as “significantly reduced mortality”.

Consider `O=C(O)c1ccc(Br)cc1S(=O)(=O)NCCCCN1C(=O)c2cccc3cccc(c23)C1=O` [Compound 7b, 4-bromo-2-(N-(4-(1,3-dioxo-1H-benzo[de]isoquinolin-2(3H)-yl)butyl)sulfamoyl) benzoic acid], for which the “caspase-3/7 activation (apoptosis)” value in assay [1] (EV DKO MEF) is on record as “not in EV DKO MEF cells”; in assay [1] (LPA2 DKO MEF) it was “significantly reduced apoptosis”. In addition, the EC50 in assay [5] was 0.4 µM; in assay [2], 1 µM. Further, the maximal response (Emax) in assay [5] and in assay [2] was 100% in each case. For the same molecule, in assay [3], the “mortality by day 20” value is given as “ineffective”.

As for `COc1ccc(C(=O)O)c(S(=O)(=O)NCCCCN2C(=O)c3cccc4cccc(c34)C2=O)c1` [Compound 7c, 2-(N-(4-(1,3-dioxo-1H-benzo[de]isoquinolin-2(3H)-yl)butyl)sulfamoyl)-4-methoxybenzoic acid], in assay [2], the 50% effective concentration (EC50) is > 10 µM.

Consider `O=C(O)c1ccc2c(c1)S(=O)(=O)N(CCCCN1C(=O)c3cccc4cccc(c34)C1=O)C2=O` [Compound 9, 2-(4-(1,3-dioxo-1H-benzo[de]isoquinolin-2(3H)-yl)butyl)-3-oxo-2,3-dihydrobenzo[d]isothiazole-6-carboxylic acid 1,1-dioxide], for which, in assay [2], the Emax was 75% and the 50% effective concentration (EC50) was 3.6 µM.
